Test results published in patent publication US5969174A, “Competitive inhibitors of glyoxalase I and method of generating such competitive inhibitors inside tumor cells” (priority 1998, dated 1999).

What was measured:
L1210 cells = test: Growth inhibition / cytotoxicity, murine leukemia L1210 cells in culture; type: cell-based
[1] = system: B16 melanotic melanoma cells; test: Growth inhibition, B16 melanotic melanoma cells in culture; type: cell-based, murine
Description: As a consequence, they are the strongest competitive inhibitors of human GlxI yet described, Table 1. […] With both cell lines there was some correlation between the Ki values of the enediol analogs and the IC50 values of the corresponding diethyl esters.
^d Sp-bromobenzylglutathione diethyl ester. Cells were incubated for
48 h in RPMI 1640/10% fetal calf serum (37° C.) in the absence and
in the presence of enzyme inhibitor. After the initial addition of
inhibitor at time zero, fresh inhibitor was added every 12 h in order to
compensate partially for the loss of inhibitor due to spontaneous
hydrolytic deethylation in the growth medium.

splenic lymphocytes = test: Toxicity toward nonproliferating splenic lymphocytes; type: cell-based; conditions: L1210 cells versus splenic lymphocytes
From the text: Conditions: See Table 1. Error bars represent standard deviations for triplicate determinations. Different symbols correspond to experiments carried out on different days.
This is illustrated for 2(Et)2 and S-p-bromobenzylglutathionediethyl ester by the dose-response curves of FIG. 3. […] Therefore, tumor cells might not be able to detoxify the inhibitors as rapidly as normal cells. In order to determine whether this could be a factor in the present study, the glyoxalase activities in both L1210 cells and splenic lymphocytes were determined. Indeed, while the GlxI activities in the two cell lines are nearly equal, the GlxII activity in L1210 cells is about 10-fold lower than that in splenic lymphocytes. The activities of GlxI and GlxII in L1210 cells were respectively 0.31±0.03 U/mg and 0.02±0.003 U/mg, while the activities in splenic lymphocytes were respectively 0.36±0.03U/mg and 0.20±0.03 U/mg.

human erythrocyte GlxI = conditions: of the unethylated species with human erythrocyte GlxI (17); read-out: Ki, competitive inhibition constant; cited from earlier work
HL60 cells = conditions: lower with HL60; literature (13); cited from earlier work
human tumor cell lines = conditions: literature; cited from earlier work
GlxII = conditions: cited from earlier work

- IC50 ([1]; Mus musculus, 48 h, RPMI 1640/10% fetal calf serum, 37° C., fresh inhibitor every 12 h, mean ± SD, read-out: IC50, 50% growth inhibition, B16): 15 ± 5 µM
Compound: CCOC(=O)CNC(=O)[C@H](CSCc1ccc(Br)cc1)NC(=O)CC[C@H](N)C(=O)OCC [p-BrbzylSG(Et)2, Sp-bromobenzylglutathione diethyl ester, reference compound]
- relative potency, L1210 (L1210 cells; L1210 cells): as potent as 2(Et)2 and 3(Et)2
- IC50 (L1210 cells; Mus musculus, L1210, 48 h, RPMI 1640/10% fetal calf serum, 37° C., fresh inhibitor every 12 h, mean ± SD, read-out: IC50, 50% growth inhibition, L1210): 9.8 ± 3.2 µM
- relative potency, B16 ([1]; versus 3(Et)2): about half as potent as 3(Et)2
- toxicity to splenic lymphocytes / selectivity in words (splenic lymphocytes; listed as S-p-Bromobenzylglutathione diethyl ester): selective toxicity
- toxicity to splenic lymphocytes / selectivity in words (splenic lymphocytes; listed as S-p-bromobenzylglutathione diethyl ester): significant selective toxicity to L1210 cells
- Ki (human erythrocyte GlxI): 0.17 µM
- IC50 with HL60 cells versus nonproliferating human neutrophils (HL60 cells): about 5 -fold
- toxicity to human tumor cell lines (human tumor cell lines): toxic to a range of different human tumor cell lines in culture
- substrate for GlxII in words (GlxII): cannot serve as a substrate for GlxII
